Measurements taken from ChEMBL document CHEMBL6103599, “Design of Potent Menin-KMT2A Interaction Inhibitors with Improved In Vitro ADME Properties and Reduced hERG Affinity” (ACS Med Chem Lett, 2025).

Tests used:
[1] = target: Voltage-gated inwardly rectifying potassium channel KCNH2 (Homo sapiens, UniProt Q12809); experiment: Inhibition of hERG expressed in CHO cells; type: toxicity, cell-based
[2] = tested on: MV4-11; experiment: Antiproliferative activity against human MV4-11 cells assessed as cell growth inhibition measured after 7 days by CellTiter-Glo assay; type: functional, cell-based; settings: MV4-11, 168 h
[3] = tested on: HL-60; experiment: Cytotoxicity against human HL-60 cells; type: functional, cell-based
[4] = Inhibition of His6-tagged MEN1 458-551 deletion A5T mutant (2 to 583 residues)/MLL (unknown origin) transfected in Escherichia coli BL21 (DE3) protein-protein interaction by TR-FRET assay; set-up: species or system Homo sapiens
[5] = Apparent permeability across apical to basolateral side in MDR1 knockout dog MDCKII cells incubated for 2 hrs by LC-MS/MS analysis; type: ADME, cell-based, Canis lupus familiaris, MDCK-II; settings: MDCK
[6] = Metabolic stability in human hepatocytes assessed as clearance by LC-MS analysis; type: ADME, cell-based, Hepatocyte; settings: read-out: CLH
[7] = Clearance in male CD-1 mouse at 1 mg/kg, iv measured after 8 hrs by LC-MS/MS analysis; type: ADME, organism-based; settings: in vivo
[8] = Volume of distribution at steady state in male CD-1 mouse at 1 mg/kg, iv measured after 8 hrs by LC-MS/MS analysis; type: ADME, organism-based; settings: in vivo, read-out: Vdss
[9] = Half life in male CD-1 mouse at 1 mg/kg, iv measured after 8 hrs by LC-MS/MS analysis; type: ADME, organism-based; settings: in vivo
[10] = AUCinfinity in male CD-1 mouse at 1 mg/kg, iv measured after 8 hrs by LC-MS/MS analysis; type: ADME, organism-based; settings: in vivo
[11] = Hepatic extraction ratio in male CD-1 mouse at 1 mg/kg, iv measured after 8 hrs by LC-MS/MS analysis; type: ADME, organism-based; settings: in vivo, read-out: ERH
[12] = target: Cytochrome P450 3A4 (Homo sapiens, UniProt P08684); experiment: Inhibition of CYP3A4 (unknown origin) using midazolam as substrate; type: ADME
Chain of Cytochrome P450 3A4 (P08684 whole entry): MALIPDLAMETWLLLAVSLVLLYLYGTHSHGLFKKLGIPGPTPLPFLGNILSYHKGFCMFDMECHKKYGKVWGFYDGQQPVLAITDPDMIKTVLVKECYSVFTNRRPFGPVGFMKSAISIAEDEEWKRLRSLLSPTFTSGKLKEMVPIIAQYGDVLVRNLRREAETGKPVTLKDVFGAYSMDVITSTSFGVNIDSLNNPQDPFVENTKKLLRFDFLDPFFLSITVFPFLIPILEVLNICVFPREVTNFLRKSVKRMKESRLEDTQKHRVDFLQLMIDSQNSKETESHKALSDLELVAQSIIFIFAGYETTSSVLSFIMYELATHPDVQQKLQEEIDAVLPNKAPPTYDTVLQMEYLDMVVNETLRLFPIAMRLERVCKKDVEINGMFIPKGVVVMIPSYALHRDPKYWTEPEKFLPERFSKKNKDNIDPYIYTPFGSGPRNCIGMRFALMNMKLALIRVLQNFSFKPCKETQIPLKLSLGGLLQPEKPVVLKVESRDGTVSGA

[13] = Oral bioavailability in male CD-1 mouse at 30 mg/kg measured after 8 hrs by LC-MS/MS analysis; type: ADME, organism-based; settings: in vivo
[14] = Drug excretion in male Sprague-Dawley rat urine at 3 mg/kg, iv measured after 8 hrs by LC-MS/MS analysis; type: ADME, organism-based; settings: read-out: Drug excretion
[15] = Cmax in male CD-1 mouse at 30 mg/kg, po measured after 8 hrs by LC-MS/MS analysis; type: ADME, organism-based; settings: in vivo
[16] = Binding affinity to His6-tagged MEN1 458-551 deletion A5T mutant (unknown origin) assessed as dissociation constant by SPR analysis; set-up: species or system Homo sapiens
[17] = Metabolic stability in human liver microsomes assessed as clearance incubated for 20 mins by LC-MS/MS analysis; type: ADME, Microsome; settings: read-out: CLH

Chain of Voltage-gated inwardly rectifying potassium channel KCNH2 (Q12809 whole entry): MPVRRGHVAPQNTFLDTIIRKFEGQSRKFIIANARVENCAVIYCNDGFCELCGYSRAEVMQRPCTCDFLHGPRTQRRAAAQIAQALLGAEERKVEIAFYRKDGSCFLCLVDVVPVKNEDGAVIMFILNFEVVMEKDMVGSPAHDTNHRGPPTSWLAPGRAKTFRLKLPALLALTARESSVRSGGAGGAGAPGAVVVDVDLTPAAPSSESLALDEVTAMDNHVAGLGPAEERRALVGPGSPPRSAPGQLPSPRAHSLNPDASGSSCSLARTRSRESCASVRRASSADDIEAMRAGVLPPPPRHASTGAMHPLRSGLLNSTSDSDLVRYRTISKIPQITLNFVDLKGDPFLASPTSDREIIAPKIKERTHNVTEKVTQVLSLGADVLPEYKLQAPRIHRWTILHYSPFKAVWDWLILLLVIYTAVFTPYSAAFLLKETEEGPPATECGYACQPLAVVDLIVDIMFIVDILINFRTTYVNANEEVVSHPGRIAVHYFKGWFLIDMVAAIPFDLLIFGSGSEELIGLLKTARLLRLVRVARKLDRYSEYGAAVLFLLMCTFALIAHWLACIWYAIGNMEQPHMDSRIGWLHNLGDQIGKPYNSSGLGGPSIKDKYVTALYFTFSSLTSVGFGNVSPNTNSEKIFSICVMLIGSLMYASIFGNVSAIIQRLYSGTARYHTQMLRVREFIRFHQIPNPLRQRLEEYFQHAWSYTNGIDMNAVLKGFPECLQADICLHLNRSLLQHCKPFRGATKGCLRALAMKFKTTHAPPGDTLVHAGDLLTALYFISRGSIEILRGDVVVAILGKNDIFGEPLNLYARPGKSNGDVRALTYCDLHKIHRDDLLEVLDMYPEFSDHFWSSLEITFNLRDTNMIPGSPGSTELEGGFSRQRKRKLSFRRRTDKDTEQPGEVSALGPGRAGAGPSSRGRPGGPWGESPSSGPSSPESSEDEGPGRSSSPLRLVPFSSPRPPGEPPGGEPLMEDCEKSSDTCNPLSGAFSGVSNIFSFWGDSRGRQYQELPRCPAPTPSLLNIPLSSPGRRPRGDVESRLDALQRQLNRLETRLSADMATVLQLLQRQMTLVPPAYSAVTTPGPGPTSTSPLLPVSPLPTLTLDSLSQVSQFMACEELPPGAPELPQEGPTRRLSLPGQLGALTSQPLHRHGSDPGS

Row | Structure (SMILES) | IC50 [2] [nM] | IC50 [4] [nM] | Papp A→B at 2 h [5] [×10⁻⁶ cm/s] | CLint scaled [6] [mL/min/kg] | IC50 [1] [µM] | IC50 [3] [µM] | also measured
1 | CCN(C(=O)c1cc(F)ccc1Oc1cncnc1N1CC2(CCN(CC(C)(C)C)CC2)C1)C(C)C | 72 | 12 |  |  | 2.9 | > 5 | 
2 | CC1(CN2CCC3(CC2)CN(c2ncnnc2Oc2ccc(F)cc2C(=O)N2C4CCC2COC4)C3)CC1 | 74 | 8 | 3 | 5 | 65 |  | clearance [7]: 48.7 mL/min/kg; Vd [8]: 4.34 L/kg; half-life [9]: 101 min; AUC(0-inf) [10]: 342 ng·h/mL; hepatic extraction ratio at 8 h [11]: 0.541; IC50 [12]: > 50 µM; bioavailability [13]: 74%; dose excreted at 8 h [14]: 22%; Cmax [15]: 5000 ng/mL
3 | CCN(C(=O)c1cc(F)ccc1Oc1cncnc1N1CC2(CCN(C3CCCC3)CC2)C1)C(C)C | 166 | 18 |  |  |  | > 5 | 
4 | CC1(CN2CCC3(CC2)CN(c2ncnnc2Oc2ccc(F)cc2CN2CCOCC2=O)C3)CC1 | 190 | 5 | 8 | 6 |  |  | 
5 | CCN(C(=O)c1cc(F)ccc1Oc1cncnc1N1CC2(CCN(C(=O)C34CC5CC(CC3C5)C4)CC2)C1)C(C)C | 58 | 8 |  |  | > 100 | > 5 | 
6 | CC1(CN2CCC3(CC2)CN(c2ncnnc2Oc2ccc(F)cc2C(=O)N2CCOCC2)C3)CC1 | 314 | 62 | 4 | 6 | 46 |  | 
7 | CCN(C(=O)c1cc(F)ccc1Oc1cncnc1N1CC2(CCN(CC3CCCC3)CC2)C1)C(C)C | 102 | 4 |  |  |  | > 5 | 
8 | CCN(C(=O)c1cc(F)ccc1Oc1cncnc1N1CC2(CCN(C(C)=O)CC2)C1)C(C)C | > 5000 | 160 |  |  |  | > 5 | 
9 | CSC1(CN2CCC3(CC2)CN(c2ncnnc2Oc2ccc(F)cc2CN2CCCC2=O)C3)CC1 | 345 | 5 | 6 | 11 |  |  | 
10 | CCN(C(=O)c1cc(F)ccc1Oc1nnccc1N1CC2(CCN(CC3(C)CC3)CC2)C1)C(C)C | 58 | 11 | 7 | 8 | 28 |  | 
11 | CCN(C(=O)c1cc(F)ccc1Oc1cncnc1N1CC2(CCN(CC(C)C)CC2)C1)C(C)C | 416 | 66 |  |  |  | > 5 | 
12 | C[C@@H]1CCCCN1C(=O)c1cc(F)ccc1Oc1nncnc1N1CC2(CCN(CC3(C)CC3)CC2)C1 | 145 | 20 | 21 | 9 |  |  | 
13 | CCN(C(=O)c1cc(F)ccc1Oc1cncnc1N1CC2(CCN(C[C@@H](O)C(F)(F)F)CC2)C1)C(C)C | 502 | 33 |  |  |  | > 5 | 
14 | C[C@@H]1COC[C@H](C)N1C(=O)c1cc(F)ccc1Oc1nncnc1N1CC2(CCN(CC3(C)CC3)CC2)C1 | 65 | 9 | 13 | 5 |  |  | 
15 | C[C@@H]1CCCN1C(=O)c1cc(F)ccc1Oc1nncnc1N1CC2(CCN(CC3(C)CC3)CC2)C1 | 231 | 6 | 23 | 27 |  |  | 
16 | CC1(CN2CCC3(CC2)CN(c2ncnnc2Oc2ccc(F)cc2CN2C(=O)CC4CC42)C3)CC1 (racemic) | 112 | 6 | 9 | 4 |  |  | clearance [7]: 104 mL/min/kg; Vd [8]: 4.14 L/kg; half-life [9]: 38.4 min; AUC(0-inf) [10]: 160 ng·h/mL; CLint scaled [17]: 4 mL/min/kg

Stronger by IC50 [2], values ahead:

Row | IC50 [2] [nM] | IC50 [4] [nM] | Papp A→B at 2 h [5] [×10⁻⁶ cm/s] | CLint scaled [6] [mL/min/kg] | Structure (SMILES) | IC50 [1] [µM] | IC50 [3] [µM] | also measured
17 | 12 | 8 | 42 | 14 | CCN(C(=O)c1cc(F)ccc1Oc1nncnc1N1CC2(CCN(CC3(SC)CC3)CC2)C1)C(C)C | 75 |  | 
18 | 21 | 5 | 29 | 6 | CCC1(CN2CCC3(CC2)CN(c2ncnnc2Oc2ccc(F)cc2CN2C(=O)COC[C@H]2C)C3)CC1 |  |  | 
19 | 13 | 4 | 8 | 8 | CSC1(CN2CCC3(CC2)CN(c2ncnnc2Oc2ccc(F)cc2CN2C(=O)COC[C@H]2C)C3)CC1 |  |  | 
20 | 22 | 7 | 26 | 11 | CCN(C(=O)c1cc(F)ccc1Oc1cncnc1N1CC2(CCN(CC3(C)CC3)CC2)C1)C(C)C | 10.8 | > 5 | 
21 | 20 | 13 |  |  | CCN(C(=O)c1cc(F)ccc1Oc1cncnc1N1CC2(CCN(CC34CC(C3)C4)CC2)C1)C(C)C |  | > 5 | 
22 | 19 | 4 | 7 | 4 | C[C@@H]1COCC(=O)N1Cc1cc(F)ccc1Oc1nncnc1N1CC2(CCN(CC3(C)CC3)CC2)C1 |  |  | Kd [16]: 0.05 nM
23 | 19 | 10 | 35 | 6 | CCN(C(=O)c1cc(F)ccc1Oc1nncnc1N1CC2(CCN(CC3(C)CC3)CC2)C1)C(C)C | 28 |  | clearance [7]: 129 mL/min/kg; Vd [8]: 14.1 L/kg; half-life [9]: 133 min; AUC(0-inf) [10]: 92 ng·h/mL
24 | 19 | 4 | 35 | 10 | CC(C)C1(CN2CCC3(CC2)CN(c2ncnnc2Oc2ccc(F)cc2CN2C(=O)COC[C@H]2C)C3)CC1 |  |  | clearance [7]: 130 mL/min/kg; Vd [8]: 5.44 L/kg; half-life [9]: 45.6 min; AUC(0-inf) [10]: 128 ng·h/mL
25 | 23 | 8 |  |  | CCN(C(=O)c1cc(F)ccc1Oc1cncnc1N1CC2(CCN(CC3CCCCC3)CC2)C1)C(C)C | 3.5 | > 5 | 
26 | 53 | 12 |  |  | CCN(C(=O)c1cc(F)ccc1Oc1cncnc1N1CC2(CCN(Cc3ccc(C#N)cc3)CC2)C1)C(C)C | < 1 | > 5 | 
27 | 48 | 23 | 8 | 7 | C[C@@H]1COC[C@@H](C)N1C(=O)c1cc(F)ccc1Oc1nncnc1N1CC2(CCN(CC3(C)CC3)CC2)C1 |  |  | 
28 | 10 | 4 | 30 | 7 | CON(C(=O)c1cc(F)ccc1Oc1nncnc1N1CC2(CCN(CC3(C)CC3)CC2)C1)C(C)C |  |  | clearance [7]: 78.7 mL/min/kg; Vd [8]: 1.7 L/kg; half-life [9]: 28.8 min; AUC(0-inf) [10]: 212 ng·h/mL; hepatic extraction ratio at 8 h [11]: 0.874
29 | 40 | 4 | 9 | 3 | C[C@@H]1CCC(=O)N1Cc1cc(F)ccc1Oc1nncnc1N1CC2(CCN(CC3(C)CC3)CC2)C1 |  |  | clearance [7]: 51.6 mL/min/kg; Vd [8]: 5.48 L/kg; half-life [9]: 106 min; AUC(0-inf) [10]: 323 ng·h/mL; hepatic extraction ratio at 8 h [11]: 0.574
30 | 10 | 0.149 |  |  | CCN(C(=O)c1cc(F)ccc1Oc1cncnc1N1CC2(CCN(C[C@H]3CC[C@H](NS(=O)(=O)CC)CC3)CC2)C1)C(C)C [REVUMENIB] | 5 | > 5 | 
